In assay [1] the target is 5-hydroxytryptamine receptor 2A (Homo sapiens) (UniProt P28223). Briefly: Agonist activity at 5HT2A receptor (unknown origin) expressed in HEK293 cells assessed as maximal effect by FLIPR calcium flux assay relative to control. The format is functional, cell-based. Conditions: filed as agonist.
The test system of the next assay is Mus musculus. Nature of the assay: Antipsychotic activity in sc dosed C57BL/6 mouse assessed as DOI-induced head twitching observed for 20 mins. It counts as functional, organism-based. Conditions: dose 1-100 mg/kg.

Structures are written as SMILES.

5-hydroxytryptamine receptor 2A (Homo sapiens), sequence (P28223 whole entry): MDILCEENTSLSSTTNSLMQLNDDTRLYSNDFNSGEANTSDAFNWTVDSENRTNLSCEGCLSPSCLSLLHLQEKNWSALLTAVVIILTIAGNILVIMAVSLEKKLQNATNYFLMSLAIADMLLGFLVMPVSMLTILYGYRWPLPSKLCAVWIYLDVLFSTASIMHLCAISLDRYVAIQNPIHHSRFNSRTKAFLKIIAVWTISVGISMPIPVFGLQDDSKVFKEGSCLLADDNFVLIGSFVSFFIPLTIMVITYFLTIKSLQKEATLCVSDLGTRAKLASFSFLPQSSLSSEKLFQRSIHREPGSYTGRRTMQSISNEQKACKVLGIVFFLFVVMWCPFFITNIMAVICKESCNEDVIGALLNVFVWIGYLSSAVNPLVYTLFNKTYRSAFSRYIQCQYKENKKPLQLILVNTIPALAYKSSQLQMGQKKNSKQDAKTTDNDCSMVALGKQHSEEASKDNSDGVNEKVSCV

Regarding `CN(C)CCc1c[nH]c2ccccc12`, the maximal response (Emax) (as a rule, the size of the effect at its maximum, as opposed to the concentration needed) in assay [1] stood at 93.4%.

Turning to `CCN(C)CCc1c[nH]c2ccc(F)cc12`, the Activity result in the assay with Mus musculus is “Dose-Dependent Effect”. Besides, the maximal effect (Emax) in assay [1] was found to be 87.6%.

As to `CCCN(CC)CCc1c[nH]c2ccc(F)cc12`, the Activity entry in the assay on Mus musculus is “Dose-Dependent Effect”. Also, the Emax in assay [1] turned out to be 104%.

Values taken from ChEMBL document CHEMBL4840380, “The Psychedelic Renaissance: Addressing Potential Adverse Effects in a Therapeutic Setting” (ACS Med Chem Lett, 2021).
